PMC6530907 (Biochemistry, 2019)
pIC50, pKi: −log10 of the molar value. Converted amounts (≈) assume the structure as drawn.

Legend:
Msm ΔEM-pMbtAtb = assay: microbe, parasite or virus in culture; assay type: cell-based, Mycobacterium smegmatis; conditions: for MIC potency compared to 1 (decrease): Fe-limiting media
MbtAtb (H10MbtA^opt) [1] = target: T1, MbtAtb (H10MbtA^opt) (Mycobacterium tuberculosis, UniProt P71716); assay type: biochemical; conditions: Kiapp increased linearly with [S]
MbtAtb (H10MbtA^opt) [2] = target: T1, MbtAtb (H10MbtA^opt); assay type: biochemical
PPT-PNP coupling system = assay type: biochemical
Msm WT = assay: Growth inhibition assay; assay type: cell-based, Mycobacterium smegmatis; conditions: GASTD+Fe medium
Msm ΔE = assay: microbe, parasite or virus in culture; assay type: cell-based, Mycobacterium smegmatis; conditions: GASTD medium (Fe-limiting)
Msm ΔM = assay type: cell-based, Mycobacterium smegmatis; conditions: GASTD+Fe medium
Mtb [3] = conditions: cited from earlier work
Mtb [4] = conditions: monotherapy at 5.6 or 16.7 mg/kg; cited from earlier work
[5] = mouse; cited from earlier work
mammalian cells = conditions: cited from earlier work
H10MbtA^opt = H10MbtA^opt (Mycobacterium tuberculosis, UniProt P71716); assay type: biochemical
MbtAtb = conditions: cited from earlier work; for pKi: read-out: Kiapp
MbtAtb (H10MbtA^opt) [6] = target: T1, MbtAtb (H10MbtA^opt); assay type: biochemical; conditions: read-out: IC50 (H10MbtA^opt-dependent signal, salicyl-AMS fragments)

T1 sequence (P71716 whole entry, looked up): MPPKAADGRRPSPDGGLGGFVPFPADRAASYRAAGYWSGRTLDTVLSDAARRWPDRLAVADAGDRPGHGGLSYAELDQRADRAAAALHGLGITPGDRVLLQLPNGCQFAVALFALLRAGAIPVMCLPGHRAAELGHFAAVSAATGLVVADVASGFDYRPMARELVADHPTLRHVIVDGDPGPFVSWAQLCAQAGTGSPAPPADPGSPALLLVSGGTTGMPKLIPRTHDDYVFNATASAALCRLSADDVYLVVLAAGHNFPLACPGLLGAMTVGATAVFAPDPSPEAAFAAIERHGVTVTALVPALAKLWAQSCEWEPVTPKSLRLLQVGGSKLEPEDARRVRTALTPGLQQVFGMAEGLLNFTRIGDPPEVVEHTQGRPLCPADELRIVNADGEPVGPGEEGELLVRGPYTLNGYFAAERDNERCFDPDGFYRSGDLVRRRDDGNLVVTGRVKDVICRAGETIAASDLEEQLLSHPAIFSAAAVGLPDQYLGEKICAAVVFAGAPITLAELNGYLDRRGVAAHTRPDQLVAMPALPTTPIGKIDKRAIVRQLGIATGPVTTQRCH
Chain of H10MbtA^opt (P71716 whole entry, looked up): as above

With `Nc1nc(Nc2ccccc2)nc2c1ncn2C1OC(COS(=O)(=O)NC(=O)c2ccccc2O)C(O)C1O` (stereo not shown) [3b, salicyl-2-NHPh-AMS] the “MIC potency compared to 1 (decrease)” value (Msm ΔEM-pMbtAtb) was “no statistically significant difference”.

With `Nc1ncnc2c1ncn2[C@@H]1O[C@H](COS(=O)(=O)NC(=O)c2ccccc2O)[C@@H](O)[C@H]1O` [compound 1, 5´-O-[N-salicylsulfamoyl]adenosine] the “inhibition mechanism with respect to both MbtAtb substrates” value (MbtAtb (H10MbtA^opt) [1]) was “competitive inhibition mechanism”, the “mechanism of inhibition (kobs vs inhibitor concentration)” value (MbtAtb (H10MbtA^opt) [2]; linear kobs vs [I]) was “static, slow-onset mechanism of inhibition” and the “effect on the PPT-PNP coupling system” value (PPT-PNP coupling system) was “did not affect”. For the same compound, the MIC (Msm WT) was over 1000 µg/mL, the MIC (Msm ΔE) was 0.5 to 1 µg/mL and the MIC (Msm ΔE; Mycolicibacterium smegmatis) was 0.5 to 1 µg/mL (≈ 1.07 to 2.14 µM). For the same compound, the MIC (Msm ΔM) was over 1000 µg/mL, the MIC (Msm ΔEM-pMbtAtb; GASTD medium (Fe-limiting), listed as salicyl-AMS) was 0.5 to 1.0 µg/mL and the MIC (Msm ΔEM-pMbtAtb; GASTD+Fe medium (Fe-rich)) was > 1,000 µg/ml. For the same compound, the MIC (Msm ΔEM-pMbtAtb; Mycolicibacterium smegmatis, GASTD medium (Fe-limiting)) was 0.5 to 1 µg/mL (≈ 1.07 to 2.14 µM), the MIC (Msm ΔEM-pMbtAtb; Mycolicibacterium smegmatis, GASTD+Fe medium (Fe-rich)) was over 1000 µg/mL and the MIC (Mtb [3]; Fe-limiting medium, comparable inoculum) was 0.1 to 0.5 µg/mL. The “Mtb growth in the mouse lung” value (Mtb [4]) was “significant reduction of Mtb growth in the mouse lung”, the “doses with in vivo toxicity” value [5] was at least 16.7 mg/kg and the “cytotoxicity against mammalian cells” value (mammalian cells) was “not cytotoxic”.

`O=C(O)c1ccccc1O` [salicylic acid] showed a Kmsal (H10MbtA^opt) of 0.31 ± 0.003 µM.

In the case of `Nc1ncnc2c1ncn2[C@H]1C[C@H](O)[C@@H](COS(=O)(=O)NC(=O)c2ccccc2O)O1` [compound 2, salicyl-2´-dAMS], the “worsening of the kinetic parameters relative to salicyl-AMS (1)” value (MbtAtb (H10MbtA^opt) [2]) is listed as at most 2 fold, the “MIC potency compared to 1 (decrease)” value (Msm ΔEM-pMbtAtb) is listed as 6 fold and the “decrease in Kiapp relative to salicyl-AMS (1)” value (MbtAtb; ATP-PPi assay) is listed as 0.5 fold.

In the case of `Nc1ncnc2c1ncn2[C@@H]1O[C@H](COP(=O)(O)OP(=O)(O)OP(=O)(O)O)[C@@H](O)[C@H]1O` [ATP], the KmATP (H10MbtA^opt) was 13.0 ± 1.3 µM and the “kcatsal (ATP as the variable substrate)” value (H10MbtA^opt) was 0.0193 ± 0.00067 s⁻¹.

For `CN(C)c1ncnc2c1ncn2C1OC(COS(=O)(=O)NC(=O)c2ccccc2O)C(O)C1O` (stereo not shown) [compound 12, salicyl-6-N,N-diMe-AMS], the “Mtb MIC” value (Mtb [3]) is given as 50 µM and the pKi (MbtAtb) is given as 6.42.

For `O=C(NS(=O)(=O)OCC1OC(n2cnc3c(=O)[nH]cnc32)C(O)C1O)c1ccccc1O` (stereo not shown) [compound 11, salicyl-IMS], the “Mtb MIC” value (Mtb [3]) is given as over 100 µM and the pKi (MbtAtb) is given as 6.10.

In the case of `Nc1ncnc2c1ncn2[C@@H]1O[C@H](CNS(=O)(=O)NC(=O)c2ccccc2O)[C@@H](O)[C@H]1O` [4a, salicyl-AMSN], the “MIC potency compared to 1 (decrease)” value (Msm ΔEM-pMbtAtb) was “no statistically significant difference”.

For `CNc1ncnc2c1ncn2[C@@H]1O[C@H](COS(=O)(=O)NC(=O)c2ccccc2O)[C@@H](O)[C@H]1O` [5a, salicyl-6-N-Me-AMS], the “Kiapp higher than that of salicyl-AMS (1)” value (from here on “Kiapp higher than that”) (MbtAtb (H10MbtA^opt) [2]) was “≈ 5.5 fold”, the “decrease in tR compared with salicyl-AMS (1)” value (“decrease in tR” for short) (MbtAtb (H10MbtA^opt) [2]) was “≈ 0.5 fold” and the “increase in koff compared with salicyl-AMS (1)” value (shortened to “increase in koff”) (MbtAtb (H10MbtA^opt) [2]) was “≈ 2 fold”. For the same compound, the “konapp lower than that of salicyl-AMS (1)” value (from here on “konapp lower than that”) (MbtAtb (H10MbtA^opt) [2]) was “≈ 2.5 fold” and the “MIC potency compared to 1 (decrease)” value (Msm ΔEM-pMbtAtb) was “no statistically significant difference”.

For salicyl-AMSNMe [4b], the “improvement in Kiapp of 4b versus 4a” value (MbtAtb (H10MbtA^opt) [2]) was 0.5 fold and the “MIC potency compared to 1 (decrease)” value (Msm ΔEM-pMbtAtb) was “indistinguishable”.

`O=C(NS(=O)(=O)O)c1ccccc1O` [compound 8, salicyl-sulfamate] gave a pIC50 (MbtAtb (H10MbtA^opt) [6]) of about 3.00.

With `O=C(NS(=O)(=O)OC[C@H]1O[C@@H](n2cnc3c(NC4CC4)ncnc32)[C@H](O)[C@@H]1O)c1ccccc1O` [5b, salicyl-6-N-c-Pr-AMS] the “Kiapp higher than that” value (MbtAtb (H10MbtA^opt) [2]) was “≈ 5.5 fold”, the “decrease in tR” value (MbtAtb (H10MbtA^opt) [2]) was “≈ 0.5 fold” and the “increase in koff” value (MbtAtb (H10MbtA^opt) [2]) was “≈ 2 fold”. The “konapp lower than that” value (MbtAtb (H10MbtA^opt) [2]) was “≈ 2.5 fold” and the “MIC potency compared to 1 (decrease)” value (Msm ΔEM-pMbtAtb) was 6 fold.

In the case of `COc1ncnc2c1ncn2[C@@H]1O[C@H](CNS(=O)(=O)NC(=O)c2ccccc2O)[C@@H](O)[C@H]1O` [compound 6, salicyl-6-MeO-AMSN], the “Kiapp higher than that” value (MbtAtb (H10MbtA^opt) [2]) was 10 fold, the “decrease in tR” value (MbtAtb (H10MbtA^opt) [2]) was “≈ 0.5 fold” and the “increase in koff” value (MbtAtb (H10MbtA^opt) [2]) was “≈ 2 fold”. The “konapp lower than that” value (MbtAtb (H10MbtA^opt) [2]) was 6 fold and the “MIC potency compared to 1 (decrease)” value (Msm ΔEM-pMbtAtb) was 6 fold.

With `Nc1nc(-c2ccccc2)nc2c1ncn2C1OC(COS(=O)(=O)NC(=O)c2ccccc2O)C(O)C1O` (stereo not shown) [3a, salicyl-2-Ph-AMS] the “MIC potency compared to 1 (decrease)” value (Msm ΔEM-pMbtAtb) was “no statistically significant difference”.
